Publication PMC8623273, “Novel N7-Arylmethyl Substituted Dinucleotide mRNA 5′ cap Analogs: Synthesis and Evaluation as Modulators of Translation” (Pharmaceutics, 2021)

Key:
[1] = molecular target: eukaryotic translation initiation factor 4E (eIF4E) (Mus musculus, UniProt P63073); test: pyrene-probe fluorescent competitive-binding assay (PyFLINT-B) for cap analog-eIF4E; details: for effect of the N7 substituent on eIF4E binding (in words): compared to m^7GpppG / 1a or unmodified counterpart; for Kd: pyrene-based high-throughput competition assay, 30 °C, KD calculated from EC50, read-out: KD Cap-eIF4E ± SD; for EC50: Table S2
Description: High affinity for eIF4E is a desirable feature of cap analogs designed for modulating translation, either as small molecules or as a part of mRNA. Thus, we studied how different substituents at the N7-position affected eIF4E-cap interaction. To this end, we first determined the affinity of m^7GpppG and Bn^7GpppG (1a) using time-synchronized fluorescence quenching titration, a very precise and well-established, but low-throughput method. Next, to evaluate the whole set of the synthesized compounds (1a–1r), we used a high-throughput competitive-binding assay based on a pyrene-labeled fluorescent probe. From this assay we determined relative affinities of the compounds represented by half-effective concentrations (EC50) (Figure 3A–C), which were then used to calculate dissociation constant (KD) values for cap analog–eIF4E complexes using previously reported equations (Table 2, Figure 3D).
To determine the dissociation constants of the library of N7-benzylated dinucleotide 5′ cap analogs for translation initiation factor 4E, a fluorescent competitive-binding assay (PyFLINT-B) was applied as previously described. The experiments were performed on a Synergy™ H1 plate reader in 96-well, black, non-binding assay plates. Each well contained an appropriate buffer (50 mM Hepes/KOH pH 7.2, 100 mM KCl and 0.5 mM EDTA), pyrene probe m^7Gp5C4Py (10 nM), substrate (in half-logarithmic dilutions from 850 μM to 0.03 μM for compound 1m and from 100 μM to 0.003 μM for m^7GpppG and the rest of the compounds) and protein eIF4E (75 nM). The m^7Gp5C4Py was synthesized as describer earlier. The pyrene probe was dissolved in water and concentration was determined spectrometrically at 345 nm using the extinction coefficient (21,000 M^−1 cm^−1). The eIF4E protein was centrifuged after defrosting (5 min, 4 °C, 10k rcf) and its concentration was determined spectrometrically at 280 nm using the extinction coefficient (52,940 M^−1 cm^−1). The reaction mixtures were preincubated (15 min, 300 rpm, 30 °C). All measurements were performed at 30 °C and the fluorescence detection at 345 nm excitation and 378 nm emission was recorded.
To determine EC50 values, GraphPad Prism 9.1.2 software was used. To fit the curves to the obtained data we used the following formula:(1) Y=Bottom+ Top−Bottom/1+ X/EC50 where: X, cap analog (ligand) concentration; EC50, concentration of the cap analog resulting in half-maximal response from the fluorescent probe–protein complex; Bottom, minimal signal from the negative control, which contains only the free probe; Top, maximal signal from the positive control, the mixture of the protein and the fluorescent probe.
The dissociation constants KD were then calculated using the equation described by Nikolovska-Coleska et al.:(2) KD=EC50−Pt+PL50KD_probe/L50+1/L50/KD_probe+P0/KD_probe+1 where: EC50, concentration of the cap analog resulting in half-maximal response from the fluorescent probe–protein complex; [Pt], total protein concentration; [PL]50, concentration of the probe–protein complex at 50% inhibition; KD_probe, dissociation constant of the complex between the fluorescent probe and the protein; [L]50, probe concentration at 50% inhibition; [P]0, free protein concentration at 0% inhibition.

eIF4E = eIF4E (Mus musculus, UniProt P63073); test: fluorescence anisotropy (FA) competition assay with eIF4E; format: binding; details: Table S2; for EC50: 25 °C, probe m^7GTP-triazol-FAM 10 nM, eIF4E 100 nM; for Kd: calculated from EC50
Description: The KD values determined from the high-throughput assay were in qualitative agreement with data from time-synchronized fluorescence quenching titration, justifying the use of the former for evaluation of the whole set of caps. […] To additionally verify the binding affinity data (especially for 1q and 1r, as mentioned above), we determined the binding affinities for all analogs using another independent assay, based on fluorescence anisotropy. The KD data determined by this method correlated very well with the results reported above (Table S2, Figure S2).
Fractions of the compounds were independently tested using a different method based on fluorescence anisotropy (FA). These experiments were performed on a Synergy™ H1 plate reader in 96-well, black, non-binding assay plates. Each well contained appropriate buffer (50 mM HEPES/KOH pH 7.2, 100 mM KCl, 0.5 mM EDTA i 1 mM DTT), the fluorescent probe m^7GTP-triazol-FAM (10 nM), substrate (in a 2.08-fold dilution, starting from 60 μM) and protein eIF4E (100 nM). The m^7GTP-triazol-FAM was synthesized as describer earlier. All measurements were performed at 25 °C. Determined EC50 values were means ± SD of three independent experiments. The dissociation constants KD were then calculated using the equation described by Nikolovska-Coleska as described earlier.

hDcpS = molecular target: T1, hDcpS (Homo sapiens, UniProt Q96C86); format: in vitro ADME; details: 100 μM compound, 20 nM hDcpS; for hDcpS Assay: fraction of the cap remaining after 1 h incubation with DcpS: 37 °C
T1 sequence (Q96C86 1-337): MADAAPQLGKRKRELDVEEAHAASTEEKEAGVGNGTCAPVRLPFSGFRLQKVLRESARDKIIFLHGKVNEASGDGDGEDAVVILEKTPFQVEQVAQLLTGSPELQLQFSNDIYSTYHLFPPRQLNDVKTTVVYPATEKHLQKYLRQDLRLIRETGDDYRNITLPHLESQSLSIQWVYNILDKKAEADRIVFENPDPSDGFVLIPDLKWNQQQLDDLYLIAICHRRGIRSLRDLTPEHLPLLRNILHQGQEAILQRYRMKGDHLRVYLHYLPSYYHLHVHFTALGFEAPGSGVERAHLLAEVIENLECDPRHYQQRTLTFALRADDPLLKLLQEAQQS
Experimental: Susceptibility to decapping scavenger (DcpS) is one of the factors that could potentially influence the cellular stability of mono- and dinucleotide cap analogs designed as translational inhibitors. Therefore, we studied the susceptibility of arylmethyl-modified dinucleotides to DcpS. The compounds (at 100 μM concentration each) were incubated with 20 nM of hDcpS, and the hydrolysis progress at different time points was analyzed via RP HPLC and compared to m^7GpppG (Figure 4 and Figure S3).
The enzymatic activity of DcpS was assayed at 37 °C in 50 mM Tris∙HCl, pH 7.6 containing 200 mM KCl, 0.5 mM EDTA. DcpS cleavage assays were carried out with 100 μM of the tested compound and 20 nM (monomer) of the hDcpS. Enzymatic reaction progress was examined after 30, 60 and 180 min. As a control, a sample was examined before adding enzyme. Aliquots of 15 μL were terminated by heat inactivation of the enzyme for 3 min at 98 °C. The samples were analyzed via RP HPLC equipped with a Supelcosil LC-18-T column (4.6 × 250 mm, 5 μm, flow rate 1.3 mL/min).

[2] = tested on: cap-dependent translation in rabbit reticulocyte lysate (RRL); test: inhibition of cap-dependent translation in rabbit reticulocyte lysate (RRL); format: biochemical; details: RRL, cap analog and mRNA added at the same time (no pre-incubation), 60 min, 30 °C; read-out: Translation Inhibition IC50
Experimental: After determining the affinity for eIF4E and susceptibility to DcpS, we evaluated the analogs as inhibitors of protein translation in rabbit reticulocyte lysates (RRL). To enable better assessment of how these two factors influenced inhibitory properties, we performed two sets of experiments. In the first set, cap analogs were added to RRL along with luciferase-encoding reporter mRNA followed by a protein activity (luminescence) readout after 1 h, whereas in the second set cap analogs were additionally preincubated in RRL for 1 h prior to addition of mRNA. Based on previously reported findings, we expected that in the second experimental setup, cap analogs susceptible to DcpS would lose their inhibitory potency, whereas compounds resistant to DcpS would remain similarly active.
The ability of the N7-benzyl cap analogues to inhibit cap-dependent translation was assayed in a rabbit reticulocyte lysate (RRL) system. Two sets of experiments were performed. In both variants, in vitro translation reactions (10 μL total volume) contained a tested cap analog (inhibitor) and an in vitro transcribed, ARCA-capped mRNA encoding Gaussia luciferase at 1 μg/mL final concentration. In experimental variant A, cap analogues at concentrations in the range of 0 to 64 μM and mRNA were added to the reaction mixture at the same time. Reactions were incubated at 30 °C for 60 min and then stopped by freezing in liquid nitrogen. In experimental variant B, the cap analogues were added at concentrations in the range of 0 to 160 μM. Reactions were pre-incubated at 30 °C for 60 min prior to addition of mRNA; after addition of mRNA incubation was continuous at 30 °C for 60 min and then stopped by freezing in liquid nitrogen. To detect luminescence from Gaussia luciferase, 50 μL of 10 ng/mL h-coelenterazine (NanoLight, Norman, OK, USA) in PBS was added to 10 μL of RRL and the luminescence was measured with a Synergy H1 (BioTek, Winooski, VT, USA) microplate reader.

eukaryotic translation initiation factor 4E (eIF4E), sequence (P63073 whole entry): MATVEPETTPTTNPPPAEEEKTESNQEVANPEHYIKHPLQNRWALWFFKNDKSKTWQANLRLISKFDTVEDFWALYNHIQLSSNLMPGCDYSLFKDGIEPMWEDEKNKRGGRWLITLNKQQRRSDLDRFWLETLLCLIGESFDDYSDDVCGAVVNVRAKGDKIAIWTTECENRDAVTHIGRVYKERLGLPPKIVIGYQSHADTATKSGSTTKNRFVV
eIF4E, sequence (P63073 whole entry): as above

Compound: Cc1ccccc1C[n+]1cn([C@@H]2O[C@H](COP(=O)(O)OP(=O)([O-])OP(=O)(O)OC[C@H]3O[C@@H](n4cnc5c(=O)[nH]c(N)nc54)[C@H](O)[C@@H]3O)[C@@H](O)[C@H]2O)c2nc(N)nc(O)c21 [1b, 2-MeBn^7GpppG]
- effect of the N7 substituent on eIF4E binding (in words) [1]: decreased the binding affinity by eight-fold
- Kd [1]: 1910 ± 360 nM
- EC50 (eIF4E): 3100 ± 100 nM
- Kd (eIF4E): 1120 nM
- susceptibility to hDcpS (in words) (hDcpS): very slowly hydrolyzed
- hDcpS Assay: fraction of the cap remaining after 1 h incubation with DcpS (hDcpS): 0.88
- IC50 [2]: 154000 ± 88000 nM

Compound: Cc1ccc(C[n+]2cn([C@@H]3O[C@H](COP(=O)(O)OP(=O)([O-])OP(=O)(O)OC[C@H]4O[C@@H](n5cnc6c(=O)[nH]c(N)nc65)[C@H](O)[C@@H]4O)[C@@H](O)[C@H]3O)c3nc(N)nc(O)c32)cc1 [1d, 4-MeBn^7GpppG]
- EC50 [1]: 5600 nM
- Kd [1]: 482 ± 81 nM
- EC50 (eIF4E): 860 ± 30 nM
- Kd (eIF4E): 295 ± 13 nM
- susceptibility to hDcpS (in words) (hDcpS): almost as good a substrate as Bn^7GpppG
- hDcpS Assay: fraction of the cap remaining after 1 h incubation with DcpS (hDcpS): 0.53
- IC50 [2]: 16900 ± 3500 nM

Compound: Nc1nc(O)c2c(n1)n([C@@H]1O[C@H](COP(=O)(O)OP(=O)([O-])OP(=O)(O)OC[C@H]3O[C@@H](n4cnc5c(=O)[nH]c(N)nc54)[C@H](O)[C@@H]3O)[C@@H](O)[C@H]1O)c[n+]2Cc1cccc2ccccc12 [1o, α-Naphm^7GpppG]
- EC50 [1]: 35000 nM
- effect of the N7 substituent on eIF4E binding (in words) [1]: disrupted the binding to a similar extent as 2-methylbenzyl
- Kd [1]: 3040 ± 490 nM
- EC50 (eIF4E): 2100 ± 100 nM
- Kd (eIF4E): 739 ± 49 nM
- susceptibility to hDcpS (in words) (hDcpS): lower susceptibility to hDcpS than m^7GpppG
- hDcpS Assay: fraction of the cap remaining after 1 h incubation with DcpS (hDcpS): 0.97

Compound: Cc1cc(C)cc(C[n+]2cn([C@@H]3O[C@H](COP(=O)(O)OP(=O)([O-])OP(=O)(O)OC[C@H]4O[C@@H](n5cnc6c(=O)[nH]c(N)nc65)[C@H](O)[C@@H]4O)[C@@H](O)[C@H]3O)c3nc(N)nc(O)c32)c1 [1f, 3,5-di-MeBn^7GpppG]
- EC50 [1]: 7500 nM
- Kd [1]: 646 ± 114 nM
- EC50 (eIF4E): 1100 ± 100 nM
- Kd (eIF4E): 384 ± 41 nM
- susceptibility to hDcpS (in words) (hDcpS): Lower susceptibility to hydrolysis
- hDcpS Assay: fraction of the cap remaining after 1 h incubation with DcpS (hDcpS): 0.95
- IC50 [2]: 13200 ± 2000 nM

Compound: Nc1nc(O)c2c(n1)n([C@@H]1O[C@H](COP(=O)(O)OP(=O)([O-])OP(=O)(O)OC[C@H]3O[C@@H](n4cnc5c(=O)[nH]c(N)nc54)[C@H](O)[C@@H]3O)[C@@H](O)[C@H]1O)c[n+]2Cc1ccc(F)cc1F [1j, 2,4-di-F-Bn^7GpppG]
- EC50 [1]: 6900 nM
- Kd [1]: 598 ± 87 nM
- EC50 (eIF4E): 870 ± 50 nM
- Kd (eIF4E): 298 ± 18 nM
- conversion after 1 h of incubation with hDcpS (hDcpS): ~70%
- hDcpS Assay: fraction of the cap remaining after 1 h incubation with DcpS (hDcpS): 0.70
- IC50 [2]: 8400 ± 1500 nM

Compound: Nc1nc(O)c2c(n1)n([C@@H]1O[C@H](COP(=O)(O)OP(=O)([O-])OP(=O)(O)OC[C@H]3O[C@@H](n4cnc5c(=O)[nH]c(N)nc54)[C@H](O)[C@@H]3O)[C@@H](O)[C@H]1O)c[n+]2Cc1ccc(C(=O)O)cc1 [1m, 4-COOH-Bn^7GpppG]
- effect of the N7 substituent on eIF4E binding (in words) [1]: completely disrupted the binding
- Kd [1]: > 50000 nM
- susceptibility to hDcpS (in words) (hDcpS): Lower susceptibility to hydrolysis
- hDcpS Assay: fraction of the cap remaining after 1 h incubation with DcpS (hDcpS): 0.93
- IC50 [2]: > 500000 nM

Compound: Nc1nc(O)c2c(n1)n([C@@H]1O[C@H](COP(=O)(O)OP(=O)([O-])OP(=O)(O)OC[C@H]3O[C@@H](n4cnc5c(=O)[nH]c(N)nc54)[C@H](O)[C@@H]3O)[C@@H](O)[C@H]1O)c[n+]2Cc1ccc2ccccc2c1 [1p, β-Naphm^7GpppG]
- EC50 [1]: 12000 ± 600 nM
- effect of the N7 substituent on eIF4E binding (in words) [1]: disrupted the binding to a similar extent as 2-methylbenzyl
- Kd [1]: 1060 ± 190 nM
- susceptibility to hDcpS (in words) (hDcpS): lower susceptibility to hDcpS than m^7GpppG
- hDcpS Assay: fraction of the cap remaining after 1 h incubation with DcpS (hDcpS): 0.84
- IC50 [2]: 15900 ± 3400 nM
